Source: US8975289B2, “Benzyl aralkyl ether compounds, method for preparing same, intermediate compounds, use of said compounds, method for treatment and/or prevention, pharmaceutical composition and medicament containing same” (priority 2009, dated 2015)
≈ marks a conversion by molar mass, not a printed value.

Assays:
Assay type in all cases: cell-based
[1] = test system: Candida albicans 10231; test: Broth microdilution MIC (M27-A2), yeast, strain XIV; conditions: Candida albicans; strain XIV 10231, 48 hours incubation; read-out: MIC
Method: For the experiments of the present invention (i) yeast strains obtained from clinical isolates and laboratory isolates, and (ii) bacterial strains obtained from laboratory isolates were used, as described in Table 5 as follows. The yeast strains were grown in culture medium Sabouraud Dextrose Agar maintained at a temperature of 35° C. for 48 hours. […] The compounds were dissolved in dimethyl sulfoxide (DMSO) to match the final concentration of the compound equal to or less than 1%. The methodology used to test the sensitivity of the agent was broth microdilution according to the method described in Standard M27-A2 (Reference method for broth dilution tests to determine the sensitivity of yeasts to antifungal therapy-second edition, NCCLS, volume 22 number 15, USA, 2002) as follows. […] Then the suspensions were diluted in culture medium RPMI-1640 (buffered with MOPS 0.165 mol/l) at a final concentration of 50 to 2500 CFU/mL. The diluted suspensions were inoculated in duplicate in a 96-well plate. The procedure was performed in a laminar flow. […] The incubation of fungi with these compounds was carried out for 48 hours at temperature of 30 to 35° C. […] We have agreed in this experiment that the turbid medium is the result of microbial growth and the presence of deposit and a clear medium represents the absence of microbial growth. The minimum inhibitory concentration (MIC) was defined as the lowest tested drug concentration that prevents any degree of […] growth.

[2] = test system: Microsporum gypseum 40051; test: Broth microdilution MIC (M38-A), filamentous fungi, strain XII; conditions: Nannizzia gypsea
Method: (§1) For the experiments of the present invention, the dermatophyte-type fungi strains that were obtained from clinical isolates and laboratory isolates, as described in Table 2 as follows, were used:
(§2) The fungal strains were grown on agar potato medium in a sloping chute at a temperature of 30° C. for a period of 7 to 15 days.
(§3) For the experiments, the compound 1-[2-(2,4-dichlorophenyl)-2-{[4-(trifluoromethyl)benzyl]oxy}ethyl]-1H-imidazole (BL-123) in the form of its nitrate salt and miconazole nitrate were used. Both compounds were dissolved in dimethyl sulfoxide (DMSO) to match the final concentration of the compound equal to or less than 1%.
(§4) The methodology used to test the sensitivity of the agent was of broth microdilution according to the method described in Standard M38-A (Reference method for broth dilution tests for determining the sensitivity to antifungal therapy for filamentous fungi; NCCLS, volume 22 No. 16, USA, 2008) as follows.
(§5) The fungus was cultivated pursuant to item 4.1. To the tubes wherein the fungi were grown, 5 mL of saline solution were added in order to extract the fungi from the agar surface. Then, this homogeneous suspension was transferred to a new tube and the colony-forming units (CFUs) were quantified according to counting methods: (i) in Sabouraud dextrose agar plates and (ii) in a Neubauer chamber.
(§6) Then, the fungi strains listed in Table 2 were inoculated in duplicate in a 96-well plate. There were used inocula of from 2 to 6×10^3 CFU/mL of fungi, per well, in a total volume of 0.2 mL of RPMI-1640 (containing L-glutamine and without bicarbonate) buffered at pH 7.0 with MOPS (acid 3-(N-morpholine) 15 propanesulfonic). The procedure was performed in a laminar flow.
(§7) The compounds to be tested were added in a serial dilution, in duplicate, in final concentrations of 16 μg/mL; 8 μg/mL; 4 μg/mL; 2 μg/mL; 1 μg/mL; 0.5 μg/mL; 0.25 μg/mL; 0.125 μg/mL; 0.0625 μg/mL; or 0.03125 μg/mL in culture medium present in each well.
(§8) The incubation of fungi with these compounds was performed by 4, 5, 6 and 7 days at temperatures from 30 to 35° C.
(§9) The fungi quantification was carried out with the growth of fungi in each well being compared to the growth occurred in the negative control by means of a mirror reading. The negative control is represented by fungi grown in culture medium in the absence of the tested compounds. The methodology of this comparison is the numerical rating to which the microdilution well was submitted. […]

[3] = test system: Trichophyton rubrum 40005; test: Broth microdilution MIC (M38-A), filamentous fungi, strain XI
Method: as §1, §2, §3, §4, §5, §6, §7, §8, §9

[4] = test system: Candida parapsilosis 22019; test: Broth microdilution MIC (M38-A), filamentous fungi test, strain IX; conditions: 96 h; strain IX 22019, reading Day 4, average of four experiments
Method: as §1, §2, §3, §4
The fungus was cultivated pursuant to item 4.1. […] Then, this homogeneous suspension was transferred to a new tube and the colony-forming units (CFUs) were quantified according to counting methods: (i) in Sabouraud dextrose agar plates and (ii) in a Neubauer chamber. […]
The fungi quantification was carried out with the growth of fungi in each well being compared to the growth occurred in the negative control by means of a mirror reading. […]

[5] = test system: Aspergillus Niger 16404; test: Broth microdilution MIC (M38-A), filamentous fungi, strain I; conditions: for MIC: Aspergillus niger; for Resistance or sensitivity of the strain to the agent (in words): clinical isolate strain I
Method: as §1, §2, §3, §4, §5, §6, §7, §8
(§10) The fungi quantification was carried out with the growth of fungi in each well being compared to the growth occurred in the negative control by means of a mirror reading. The negative control is represented by fungi grown in culture medium in the absence of the tested compounds. The methodology of this comparison is the numerical rating to which the microdilution well was submitted. In this methodology, value 4 corresponds to no reduction of growth, value 3 corresponds to a slight reduction in growth or approximately 75% of the growth of the negative control, value 2 corresponds to a standout reduction in growth or approximately 50% of growth of negative control; value 1 corresponds to a slight growth or approximately 25% of the growth of the negative control, and value 0 corresponds to optically clear or absence of growth.
(§11) In this experiment, the minimum inhibitory concentration (MIC) is considered as the lowest concentration of the agent capable of inhibiting at least 80% of the growth of colony-forming units (CFUs).

[6] = test system: Trichophyton verrucosum 381; test: Broth microdilution MIC (M38-A), filamentous fungi, strain VII; conditions: for MIC: Trichophyton verrucosum; for Resistance or sensitivity of the strain to the agent (in words): clinical isolate strain VII
Method: as §1, §2, §3, §4, §5, §6, §7, §8, §10, §11

[7] = test system: Trichophyton rubrum 28188; test: Broth microdilution MIC (M38-A), filamentous fungi, strain V
Method: as §1, §2, §3, §4, §5, §6, §7, §8, §9

[8] = test system: Trichophyton mentagrophytes 40004; test: Broth microdilution MIC (M38-A), filamentous fungi, strain X
Method: as §1, §2, §3, §4, §5, §6, §7, §8, §9

[9] = 96 h, strain XII 40051, reading Day 4, average of four experiments
[10] = 168 h, strain XII 40051, reading Day 7, average of four experiments
[11] = 96 h, strain XI 40005, reading Day 4, average of four experiments
[12] = 168 h, strain XI 40005, reading Day 7, average of four experiments
[13] = NIGER16404, 96 h, strain I 16404, reading Day 4, average of four experiments, >=80% growth inhibition
[14] = NIGER16404, 168 h, strain I 16404, reading Day 7, average of four experiments
[15] = 96 h, strain VII 381, reading Day 4, average of four experiments
[16] = 168 h, strain VII 381, reading Day 7, average of four experiments
[17] = 96 h, strain V 28188, reading Day 4, average of four experiments
[18] = 168 h, strain V 28188, reading Day 7, average of four experiments
[19] = 96 h, strain X 40004, reading Day 4, average of four experiments
[20] = 168 h, strain X 40004, reading Day 7, average of four experiments

Row | Compound | MIC [1] [µg/mL] | MIC [2, 9] [µg/mL] | MIC [2, 10] [µg/mL] | MIC [3, 11] [µg/mL] | MIC [3, 12] [µg/mL] | MIC [4] [µg/mL] | MIC [5, 13] [µg/mL] | MIC [5, 14] [µg/mL] | Resistance or sensitivity of the strain to the agent (in words) [5] | MIC [6, 15] [µg/mL] | MIC [6, 16] [µg/mL] | Resistance or sensitivity of the strain to the agent (in words) [6] | MIC [7, 17] [µg/mL] | MIC [7, 18] [µg/mL] | MIC [8, 19] [µg/mL] | MIC [8, 20] [µg/mL]
1 | FC(F)(F)c1ccc(COC(Cn2ccnc2)c2ccc(Cl)cc2Cl)cc1 (centres unmarked) [BL-123, 1-[2-(2,4-dichlorophenyl)-2-{[4-(trifluoromethyl)benzyl]oxy}ethyl]-1H-imidazole] | 8 (≈ 19.3 µM) | 0.03 (≈ 0.0722 µM) | 0.03 (≈ 0.0722 µM) | 0.25 (≈ 0.602 µM) | 0.5 (≈ 1.2 µM) | 2 (≈ 4.82 µM) | 8 (≈ 19.3 µM) | 8 (≈ 19.3 µM) | sensitive | 4 (≈ 9.63 µM) | > 16 | sensitive | 0.03 (≈ 0.0722 µM) | 0.03 (≈ 0.0722 µM) | 0.25 (≈ 0.602 µM) | 0.5 (≈ 1.2 µM)
2 | Clc1ccc(COC(Cn2ccnc2)c2ccc(Cl)cc2Cl)c(Cl)c1 (centres unmarked) [Miconazole, miconazole, reference compound] | 4 (≈ 9.61 µM) | 0.03 (≈ 0.0721 µM) | 0.06 (≈ 0.144 µM) | 0.5 (≈ 1.2 µM) | 1 (≈ 2.4 µM) | 1 (≈ 2.4 µM) | > 16 | > 16 | resistant | > 16 | > 16 | resistant | 0.03 (≈ 0.0721 µM) | 0.06 (≈ 0.144 µM) | 0.5 (≈ 1.2 µM) | 1 (≈ 2.4 µM)
